According to publication PMC11232109, “Synthesis, anticancer evaluation of novel hybrid pyrazole-based chalcones, molecular docking, DNA fragmentation, and gene expression: in vitro studies” (RSC Advances, 2024):

Tested on: BJ1 (normal skin fibroblasts)
Experiment: MTT assay, normal cell line BJ1
Type: cell-based
Conditions: Skin fibroblast, 48 hours
Method: The percentage of the cell viability treated with the newly synthesized compounds was evaluated using MTT assay (3-(4,5-dimethylthiazol-2-yl)-2,5-diphenyl tetrazolium bromide). All the subsequent steps were done in a sterile Laminar flow class II biosafety cabinet (Baker, SG406INT, Sanford, ME, USA). DMEM was used as a suspension medium for breast cancer (MCF7), prostate cancer (PC3), and pancreatic cancer (PACA2), while normal cell line (BJ1) was suspended in DMEM-F12 medium, a 1% antibiotic-antimycotic mixture (10 000 U ml^−1 potassium penicillin, 10 000 μg ml^−1 streptomycin sulfate, and 25 μg ml^−1 amphotericin B), and 1% L-glutamine at 37 °C under 5% CO2.
Cells were cultured for 10 days and then seeded at a concentration of 10 × 10^4 cells per well in fresh complete growth medium in 96-well microtiter plastic plates at 37 °C for 24 hours under 5% CO2 using a water-jacketed carbon dioxide incubator (Sheldon, TC2323). Media were aspirated, serum-free fresh medium was added, and cells were incubated either alone (negative control) or with different concentrations of the synthesized chalcone derivatives to a final concentration of (100–50–25–12.5–6.25–3.125–0.78 and 1.56 μg ml^−1). After incubation for 48 hours, the medium was aspirated and 40 μl of MTT salt ([…]) was added to each well and incubated for another four hours at 37 °C under 5% CO2. To stop the reaction and dissolve the formed crystals, 200 μl of 10% sodium dodecyl sulfate (SDS) in deionized water was added to each well and incubated overnight at 37 °C.
The absorbance was then measured at 595 nm and a reference wavelength of 620 nm using a microplate multi-well reader (Bio-Rad Laboratories Inc., model 3350). Statistical significance was tested between the samples and the negative control (cells with vehicle) using an independent t-test using the SPSS 11 program. DMSO was the vehicle used for the dissolution of the synthesized chalcones, and its final concentration on the cells was less than 0.2%. The percentage of change in viability was calculated according to the formula: ((reading of extract/reading of negative control) − 1) × 100. A Probit analysis was carried out for the determination of IC50 using the SPSS 11 program.

COc1cccc2c1C(=O)c1c(O)c3c(c(O)c1C2=O)C[C@@](O)(C(=O)CO)C[C@@H]3O[C@H]1C[C@H](N)[C@H](O)[C@H](C)O1 [Doxorubicin, reference compound]
IC50: 13.6 ± 0.28 µM
